For eight compounds, mutagenic call results are on record in PubChem BioAssay AID1259407 (Chemical Carcinogenesis Research Information System (CCRIS), 2018).

The source made the active and inactive calls. How the calls were made is not given here.

For the series, the system named is CCRIS mutagenicity, Ames/micronucleus/aberration tests. The series can be described thus: CCRIS mutagenicity studies.
Setting [1] is: Test System: AMES SALMONELLA TYPHIMURIUM, Strain/Indicator: TA98, Metabolic Activation: NONE, Method: STANDARD PLATE.
Where [2] appears, read: Test System: AMES SALMONELLA TYPHIMURIUM, Strain/Indicator: TA98, Metabolic Activation: RAT, LIVER, S-9, AROCLOR 1254, Method: STANDARD PLATE.
Setting [3] is: Test System: AMES SALMONELLA TYPHIMURIUM, Strain/Indicator: TA100, Metabolic Activation: NONE, Method: STANDARD PLATE.
Where [4] appears, read: Test System: AMES SALMONELLA TYPHIMURIUM, Strain/Indicator: TA1535, Metabolic Activation: NONE, Method: STANDARD PLATE.
The mark [5] stands for this setting: Test System: AMES SALMONELLA TYPHIMURIUM, Strain/Indicator: TA1537, Metabolic Activation: NONE, Method: STANDARD PLATE.
Where [6] appears, read: Test System: AMES SALMONELLA TYPHIMURIUM, Strain/Indicator: TA1538, Metabolic Activation: NONE, Method: STANDARD PLATE.
The mark [7] stands for this setting: Test System: AMES SALMONELLA TYPHIMURIUM, Strain/Indicator: TA98, Metabolic Activation: NONE, Method: PREINCUBATION

As to `C=C(C)C(=O)OCC(C)(C)COC(=O)C(=C)C`, the mutagenic call is “inactive; negative” under setting [1]; “inactive; negative” under setting [2]; “inactive; negative” (Test System: AMES SALMONELLA TYPHIMURIUM, Strain/Indicator: TA98, Metabolic Activation: RAT, LIVER, S-9, SODIUM PHENOBARBITAL, Method: STANDARD PLATE); “inactive; negative” under setting [3]; “inactive; negative” (Test System: AMES SALMONELLA TYPHIMURIUM, Strain/Indicator: TA100, Metabolic Activation: RAT, LIVER, S-9, AROCLOR 1254, Method: STANDARD PLATE); “inactive; negative” (Test System: AMES SALMONELLA TYPHIMURIUM, Strain/Indicator: TA100, Metabolic Activation: RAT, LIVER, S-9, SODIUM PHENOBARBITAL, Method: STANDARD PLATE). The mutagenic call is “inactive; negative” under setting [4]; “inactive; negative” (Test System: AMES SALMONELLA TYPHIMURIUM, Strain/Indicator: TA1535, Metabolic Activation: RAT, LIVER, S-9, AROCLOR 1254, Method: STANDARD PLATE); “inactive; negative” (Test System: AMES SALMONELLA TYPHIMURIUM, Strain/Indicator: TA1535, Metabolic Activation: RAT, LIVER, S-9, SODIUM PHENOBARBITAL, Method: STANDARD PLATE); “inactive; negative” under setting [5]; “inactive; negative” (Test System: AMES SALMONELLA TYPHIMURIUM, Strain/Indicator: TA1537, Metabolic Activation: RAT, LIVER, S-9, AROCLOR 1254, Method: STANDARD PLATE); “inactive; negative” (Test System: AMES SALMONELLA TYPHIMURIUM, Strain/Indicator: TA1537, Metabolic Activation: RAT, LIVER, S-9, SODIUM PHENOBARBITAL, Method: STANDARD PLATE). Moreover, the mutagenic call is “inactive; negative” under setting [6]; “inactive; negative” (Test System: AMES SALMONELLA TYPHIMURIUM, Strain/Indicator: TA1538, Metabolic Activation: RAT, LIVER, S-9, AROCLOR 1254, Method: STANDARD PLATE); “inactive; negative” (Test System: AMES SALMONELLA TYPHIMURIUM, Strain/Indicator: TA1538, Metabolic Activation: RAT, LIVER, S-9, SODIUM PHENOBARBITAL, Method: STANDARD PLATE).
As to `COC(=O)[C@@H](C)CN=[N+]=[N-]`, under “Test System: AMES SALMONELLA TYPHIMURIUM, Strain/Indicator: TA100, Metabolic Activation: RAT, LIVER, S-9, PCB, Method: PREINCUBATION”, the mutagenic call is “active; positive”.
For the compound `Oc1ccc2ccc3cc4ccccc4c4ccc1c2c34`, the mutagenic call runs as follows: under setting [7], “inactive; negative”; (Test System: AMES SALMONELLA TYPHIMURIUM, Strain/Indicator: TA98, Metabolic Activation: RAT, LIVER, S-9, AROCLOR 1254, Method: PREINCUBATION) “active; positive”; (Test System: AMES SALMONELLA TYPHIMURIUM, Strain/Indicator: TA98, Metabolic Activation: RAT, LUNG, S-9, Method: PREINCUBATION) “active; positive”; (Test System: CHINESE HAMSTER V-79, Strain/Indicator: V-79/8-AZAGUANINE, Metabolic Activation: NONE, Method: STANDARD PLATE) “active; positive”; (Test System: CHINESE HAMSTER V-79, Strain/Indicator: V-79/OUABAIN, Metabolic Activation: NONE, Method: STANDARD PLATE) “active; positive”.
In the case of `C#C[C@]1(O)C=C[C@H]2[C@@H]3CCC4=CC(=O)CC[C@@H]4[C@H]3CC[C@@]21CC`, for the setting “End Point: IN VIVO MICRONUCLEUS, Test System: BONE MARROW POLYCHROMATIC ERYTHROCYTES, Species: MOUSE, Strain/Sex: NMRI/FEMALE, Route: INTRAGASTRIC”, the mutagenic call was “inactive; negative”.
For the compound `Nc1ccccn1`, the mutagenic call is, setting by setting: (Test System: AMES SALMONELLA TYPHIMURIUM, Strain/Indicator: TA98, Metabolic Activation: HAMSTER, LIVER, S-9, AROCLOR 1254 (10%), Method: PREINCUBATION) “inactive; negative”; under setting [7], “inactive; negative”; (Test System: AMES SALMONELLA TYPHIMURIUM, Strain/Indicator: TA98, Metabolic Activation: RAT, LIVER, S-9, AROCLOR 1254 (10%), Method: PREINCUBATION) “inactive; negative”; (Test System: AMES SALMONELLA TYPHIMURIUM, Strain/Indicator: TA100, Metabolic Activation: HAMSTER, LIVER, S-9, AROCLOR 1254 (10%), Method: PREINCUBATION) “inactive; negative”; (Test System: AMES SALMONELLA TYPHIMURIUM, Strain/Indicator: TA100, Metabolic Activation: NONE, Method: PREINCUBATION) “inactive; negative”; (Test System: AMES SALMONELLA TYPHIMURIUM, Strain/Indicator: TA100, Metabolic Activation: RAT, LIVER, S-9, AROCLOR 1254 (10%), Method: PREINCUBATION) “inactive; negative”. The mutagenic call (Test System: AMES SALMONELLA TYPHIMURIUM, Strain/Indicator: TA1535, Metabolic Activation: HAMSTER, LIVER, S-9, AROCLOR 1254 (10%), Method: PREINCUBATION) is “inactive; negative”; the mutagenic call (Test System: AMES SALMONELLA TYPHIMURIUM, Strain/Indicator: TA1535, Metabolic Activation: NONE, Method: PREINCUBATION) was “inactive; negative”; the mutagenic call (Test System: AMES SALMONELLA TYPHIMURIUM, Strain/Indicator: TA1535, Metabolic Activation: RAT, LIVER, S-9, AROCLOR 1254 (10%), Method: PREINCUBATION) is “inactive; negative”; the mutagenic call (Test System: AMES SALMONELLA TYPHIMURIUM, Strain/Indicator: TA1537, Metabolic Activation: HAMSTER, LIVER, S-9, AROCLOR 1254 (10%), Method: PREINCUBATION) is “inactive; negative”; the mutagenic call (Test System: AMES SALMONELLA TYPHIMURIUM, Strain/Indicator: TA1537, Metabolic Activation: NONE, Method: PREINCUBATION) was “inactive; negative”; the mutagenic call (Test System: AMES SALMONELLA TYPHIMURIUM, Strain/Indicator: TA1537, Metabolic Activation: RAT, LIVER, S-9, AROCLOR 1254 (10%), Method: PREINCUBATION) was “inactive; negative”.
On to `O[C@H]1C=Cc2ccc3c(sc4ccccc43)c2[C@@H]1O`, for which, under “Test System: AMES SALMONELLA TYPHIMURIUM, Strain/Indicator: TA100, Metabolic Activation: RAT, LIVER, S-9, AROCLOR 1254, Method: PREINCUBATION”, the mutagenic call is “inactive; negative”.
As to `CC[C@@]1(O)C[C@H](O[C@H]2C[C@H](N(C)C)[C@H](O[C@H]3C[C@H](O)[C@H](O[C@H]4CCC(=O)[C@H](C)O4)[C@H](C)O3)[C@H](C)O2)c2c(cc3c(c2O)C(=O)c2c(O)cccc2C3=O)[C@H]1C(=O)OC`, the mutagenic call (Test System: AMES SALMONELLA TYPHIMURIUM, Strain/Indicator: TA97, Metabolic Activation: NONE, Method: STANDARD PLATE) was “inactive; negative”; the mutagenic call under setting [1] was “inactive; negative”; the mutagenic call under setting [2] was “inactive; negative”; the mutagenic call under setting [3] is “inactive; negative”; the mutagenic call (Test System: AMES SALMONELLA TYPHIMURIUM, Strain/Indicator: TA104, Metabolic Activation: NONE, Method: STANDARD PLATE) was “active; positive”; the mutagenic call under setting [5] was “inactive; negative”. For the same compound, the mutagenic call reads like this: under setting [6], “inactive; negative”; (Test System: AMES SALMONELLA TYPHIMURIUM, Strain/Indicator: TA2637, Metabolic Activation: NONE, Method: STANDARD PLATE) “active; positive”; (Test System: E. COLI, Strain/Indicator: WP2 (HCR), Metabolic Activation: NONE, Method: STANDARD PLATE) “inactive; negative”.
Regarding `CC(=O)N(C)N=O`, the mutagenic call is, setting by setting: under setting [4], “active; positive”; (Test System: E. COLI, Strain/Indicator: WU3610, Metabolic Activation: NONE, Method: SUSPENSION/PLATE) “active; positive”.
